# According to ChEMBL document CHEMBL6127050, “Simultaneous inhibition of FLT3 and HDAC by novel 6-ethylpyrazine-2-Carboxamide derivatives provides therapeutic advantages in acute myelocytic leukemia” (Eur J Med Chem, 2024):
# pIC50: −log10 of the molar value. Active and inactive are the calls of the source. The rule behind the calls is not given here.
# What was measured:
# [1] = Toxicity in NOD/SCID mouse xenografted with human MOLM-13 cells assessed as increase in survival rate at 60 mg/kg, IG administered 5 days per week in presence of gilteritinib by Kaplan Mayer survival analysis; assay type: organism-based; conditions: in vivo, po, 120 h, time 5 day
# [2] = Cytotoxicity against HEK293T cells incubated for 48 hrs; assay type: toxicity, cell-based, HEK-293T; conditions: human
# [3] = tested on: MOLM-13; test: Induction of apoptosis in human MOLM-13 cells assessed as viable cells at 0.1 uM incubated for 48 hrs by Annexin V-FITC staining based flow cytometry analysis (reference value: 94.5 %); assay type: functional
# [4] = tested on: MOLM-13; test: Induction of apoptosis in human MOLM-13 cells assessed as early apoptotic cells at 0.1 uM incubated for 48 hrs by Annexin V-FITC staining based flow cytometry analysis (reference value: 4.07 %); assay type: functional
# [5] = tested on: MOLM-13; test: Induction of apoptosis in human MOLM-13 cells assessed as late apoptotic cells at 0.1 uM incubated for 48 hrs by Annexin V-FITC staining based flow cytometry analysis (reference value: 1.40 %); assay type: functional
# [6] = tested on: MOLM-13; test: Induction of apoptosis in human MOLM-13 cells assessed as necrotic at 0.1 uM incubated for 48 hrs by Annexin V-FITC staining based flow cytometry analysis (reference value: 0.013 %); assay type: functional
# [7] = tested on: MOLM-13; test: Induction of apoptosis in human MOLM-13 cells assessed as viable cells at 0.1 uM incubated for 48 hrs in presence of gilteritinib by Annexin V-FITC staining based flow cytometry analysis (reference value: 94.5 %); assay type: functional
# [8] = tested on: MOLM-13; test: Induction of apoptosis in human MOLM-13 cells assessed as early apoptotic cells at 0.1 uM incubated for 48 hrs in presence of gilteritinib by Annexin V-FITC staining based flow cytometry analysis (reference value: 4.07 %); assay type: functional
# [9] = tested on: MOLM-13; test: Induction of apoptosis in human MOLM-13 cells assessed as late apoptotic cells at 0.1 uM incubated for 48 hrs in presence of gilteritinib by Annexin V-FITC staining based flow cytometry analysis (reference value: 1.40 %); assay type: functional
# [10] = tested on: MOLM-13; test: Induction of apoptosis in human MOLM-13 cells assessed as necrotic cells at 0.1 uM incubated for 48 hrs in presence of gilteritinib by Annexin V-FITC staining based flow cytometry analysis (reference value: 0.013 %); assay type: functional
# [11] = tested on: MOLM-13; test: Induction of cell cycle arrest in human MOLM-13 cells assessed as accumulation of cells at G0/G1 phase at 0.05 uM measured for 48 hrs by PI/RNase staining based flow cytometric analysis (reference value: 46.24 %); assay type: functional
# [12] = tested on: MOLM-13; test: Induction of cell cycle arrest in human MOLM-13 cells assessed as accumulation of cells at G2M phase at 0.05 uM measured for 48 hrs by PI/RNase staining based flow cytometric analysis (reference value: 10.81%); assay type: functional
# [13] = tested on: MOLM-13; test: Induction of cell cycle arrest in human MOLM-13 cells assessed as accumulation of cells at S-phase at 0.05 uM measured for 48 hrs by PI/RNase staining based flow cytometric analysis (reference value: 42.95%); assay type: functional
# [14] = tested on: MOLM-13; test: Induction of cell cycle arrest in human MOLM-13 cells assessed as accumulation of cells at G0/G1 phase at 0.05 uM measured for 48 hrs in presence of gilteritinib by PI/RNase staining based flow cytometric analysis (reference value: 46.24 %); assay type: functional
# [15] = tested on: MOLM-13; test: Induction of cell cycle arrest in human MOLM-13 cells assessed as accumulation of cells at G2M phase at 0.05 uM measured for 48 hrs in presence of gilteritinib by PI/RNase staining based flow cytometric analysis (reference value: 10.81%); assay type: functional
# [16] = tested on: MOLM-13; test: Induction of cell cycle arrest in human MOLM-13 cells assessed as accumulation of cells at S-phase at 0.05 uM measured for 48 hrs in presence of gilteritinib by PI/RNase staining based flow cytometric analysis (reference value: 42.95%); assay type: functional
# [17] = Toxicity in BALB/c mouse xenografted with human MOLM-13 cells assessed as body weight loss at 30 mg/kg, IG qd administered 5 days a week and measured on day 9 in presence of gilteritinib; assay type: organism-based; conditions: in vivo, po, 216 h, time 9 day
# [18] = Toxicity in BALB/c mouse xenografted with human MOLM-13 cells assessed as lung damage at 30 mg/kg, IG qd administered 5 days a week and measured on day 9 in presence of gilteritinib by H and E staining based analysis; assay type: organism-based; conditions: in vivo, po, 216 h, time 9 day
# [19] = biological target: T1, Receptor-type tyrosine-protein kinase FLT3 (Homo sapiens, UniProt P36888); test: Inhibition of FLT3 (unknown origin) incubated for 40 mins in presence of ATP by kinase-glo plus luminescence assay
# T1 sequence (P36888 whole entry): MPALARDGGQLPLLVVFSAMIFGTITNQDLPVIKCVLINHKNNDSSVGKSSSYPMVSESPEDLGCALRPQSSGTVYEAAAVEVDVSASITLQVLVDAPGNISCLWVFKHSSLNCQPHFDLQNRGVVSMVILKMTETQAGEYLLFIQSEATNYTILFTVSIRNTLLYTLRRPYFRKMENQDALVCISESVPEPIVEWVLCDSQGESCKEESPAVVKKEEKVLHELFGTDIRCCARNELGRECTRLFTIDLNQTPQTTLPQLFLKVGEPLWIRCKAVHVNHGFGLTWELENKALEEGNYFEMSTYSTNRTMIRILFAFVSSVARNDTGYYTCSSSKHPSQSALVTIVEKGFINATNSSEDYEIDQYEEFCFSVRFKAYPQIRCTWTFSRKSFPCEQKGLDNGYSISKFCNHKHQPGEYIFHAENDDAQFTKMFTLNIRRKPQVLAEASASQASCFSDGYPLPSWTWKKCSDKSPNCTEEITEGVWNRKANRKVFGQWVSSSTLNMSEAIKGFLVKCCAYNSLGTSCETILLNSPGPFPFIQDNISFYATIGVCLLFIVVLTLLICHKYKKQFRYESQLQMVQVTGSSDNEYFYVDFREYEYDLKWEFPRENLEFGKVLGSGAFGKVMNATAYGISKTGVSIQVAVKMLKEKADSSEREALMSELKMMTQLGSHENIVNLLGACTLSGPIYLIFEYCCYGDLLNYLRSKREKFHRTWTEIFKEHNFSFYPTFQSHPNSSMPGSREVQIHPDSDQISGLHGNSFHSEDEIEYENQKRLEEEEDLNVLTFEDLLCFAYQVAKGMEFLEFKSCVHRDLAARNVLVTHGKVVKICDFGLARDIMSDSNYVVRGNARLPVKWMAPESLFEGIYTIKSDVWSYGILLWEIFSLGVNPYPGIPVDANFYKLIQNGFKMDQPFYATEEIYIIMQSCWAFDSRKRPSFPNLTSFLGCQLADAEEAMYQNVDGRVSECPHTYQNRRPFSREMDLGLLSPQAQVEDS
# [20] = tested on: MOLM-13; test: Antiproliferative activity against human MOLM-13 cells incubated for 48 hrs; conditions: MOLM-13, 48 h
# [21] = tested on: KG-1; test: Antiproliferative activity against human KG-1 cells incubated for 48 hrs; conditions: KG-1, 48 h
# [22] = tested on: THP-1; test: Antiproliferative activity against human THP-1 cells incubated for 48 hrs; conditions: THP-1, 48 h
# [23] = tested on: K562; test: Antiproliferative activity against human K562 cells incubated for 48 hrs; conditions: K562, 48 h
# [24] = biological target: Receptor-type tyrosine-protein kinase FLT3 (Homo sapiens) (UniProt P36888); test: Inhibition of FLT3 phosphorylation in human MOLM-13 cells at 0.001 to 0.1 microM by Western blot analysis; assay type: cell-based; conditions: dose 0.001-0.1 µM
# [25] = tested on: MOLM-13; test: Inhibition of STAT5 phosphorylation in human MOLM-13 cells at 0.01 to 0.1 microM by Western blot analysis; assay type: cell-based; conditions: dose 0.01-0.1 µM
# [26] = tested on: MOLM-13; test: Inhibition of ERK1/2 phosphorylation in human MOLM-13 cells at 0.01 to 0.1 microM by Western blot analysis; assay type: cell-based; conditions: dose 0.01-0.1 µM
# [27] = tested on: MOLM-13; test: Inhibition of ERK1/2 phosphorylation in human MOLM-13 cells at 0.1 microM by Western blot analysis; assay type: cell-based
# [28] = tested on: MOLM-13; test: Induction of apoptosis in human MOLM-13 cells assessed as caspase-3 activation; assay type: functional, cell-based; conditions: dose 0.1 µM
# [29] = tested on: Mitochondrial membrane; test: Induction of mitochondrial membrane potential depolarization in human MOLM-13 cells; assay type: cell membranes; conditions: dose 0.1 µM
# [30] = Metabolic stability in mouse liver microsome incubated upto 120 mins in presence of NADPH by HPLC analysis; assay type: ADME; conditions: microsomes, 2 h
# [31] = Stability in mouse plasma incubated upto 24 hrs by HPLC analysis; assay type: ADME, cell-free
# [32] = tested on: MOLM-13; test: Antitumor activity against human MOLM-13 cells xenografted BALB/c mouse assessed as reduction in tumor volume at 10 mg/kg, IG qd administered 5 days a week and measured on day 9; assay type: functional, organism-based; conditions: time 9.0 day
# [33] = tested on: MOLM-13; test: Antitumor activity against human MOLM-13 cells xenografted BALB/c mouse assessed as tumor growth inhibition at 10 mg/kg, IG qd administered 5 days a week and measured on day 9; assay type: functional; conditions: MOLM-13, po, 216 h, time 9 day, read-out: TGI
# [34] = Toxicity in BALB/c mouse xenografted with human MOLM-13 cells assessed as body weight loss at 10 mg/kg, IG qd administered 5 days a week and measured on day 9; assay type: organism-based; conditions: in vivo, po, 216 h, time 9 day
# [35] = Toxicity in BALB/c mouse xenografted with human MOLM-13 cells assessed as lung damage at 10 mg/kg, IG qd administered 5 days a week and measured on day 9 by H and E staining based analysis; assay type: organism-based; conditions: in vivo, po, 216 h, time 9 day
# [36] = Toxicity in BALB/c mouse xenografted with human MOLM-13 cells assessed as kidney damage at 10 mg/kg, IG qd administered 5 days a week and measured on day 9 by H and E staining based analysis; assay type: organism-based; conditions: in vivo, po, 216 h, time 9 day
smiles,measurement,setting,value
O=C(CCCCCCC(=O)Nc1ccccc1)NO [VORINOSTAT],Activity,[1],Non-Toxic
same,IC50 at 48 h,[2],2210 nM
same,Activity,[3],83%
same,Activity,[4],14.8%
same,Activity,[5],2.01%
same,Activity,[6],0.18%
same,Activity,[7],46.8%
same,Activity,[8],35%
same,Activity,[9],17.4%
same,Activity,[10],0.88%
same,Activity,[11],49.16%
same,Activity,[12],7.58%
same,Activity,[13],43.26%
same,Activity,[14],64.51%
same,Activity,[15],7.24%
same,Activity,[16],28.26%
same,Activity,[17],Non-Toxic
same,Activity,[18],Non-Toxic
CCc1nc(C(N)=O)c(Nc2ccc(N3CCN(CCCCCCCC(=O)NO)CC3)c(OC)c2)nc1NC1CCOCC1,pIC50,[19],9.22
same,pIC50,[20],8.10
same,pIC50,[21],6.18
same,pIC50,[22],6.19
same,pIC50,[23],6.31
same,IC50 at 48 h,[2],3050 nM
same,inhibition,[24],Active
same,inhibition,[25],Active
same,inhibition,[26],Active
same,inhibition,[27],Active
same,viability at 0.1 µM,"[3]; Homo sapiens, MOLM-13, read-out: Activity",39.4%
same,Activity,[4],43.5%
same,Activity,[5],16.6%
same,Activity,[6],0.54%
same,Activity,[28],Dose-Dependent Effect
same,Activity,[29],Dose-Dependent Effect
same,Activity,[11],75.85%
same,Activity,[12],4.12%
same,Activity,[13],20.04%
same,Stability,[30],Stable
same,Stability,[31],Stable
same,Activity,[32],Active
same,inhibition in vivo at 10 mg/kg,[33],65.3%
same,Activity,[34],Non-Toxic
same,Activity,[35],Non-Toxic
same,Activity,[36],Non-Toxic
